In PMC7836687 (International Journal of Biological Macromolecules, 2020):

How the values were obtained:
SARS-CoV-2 = format: cell-based, SARS-CoV-2 (βCoV/KOR/KCDC03/2020); conditions: Severe acute respiratory syndrome coronavirus 2, Vero; for IC50: read-out: IC50 against SARS-CoV-2 infection
Vero cells = conditions: at concentration 12.50 μM
[1] = cited from earlier work

Compound | IC50 (SARS-CoV-2) [µM] | further results
C=C(C)[C@@H]1CCC(C)=C[C@H]1c1c(O)cc(CCCCC)cc1O [CBD, Cannabidiol] | 7.91 | inhibition at 12.5 µM (SARS-CoV-2; read-out: inhibition of SARS-CoV-2 virus): 99.2%; Vero cell survival ratio (Vero cells): 97.46%; safe dose ([1]; humans, concluded from literature dosing): up to 60 mg per day; safety of a single oral dose ([1]; single oral dose 100 mg, healthy volunteers): safe and tolerable
C=C(C)[C@@H]1CCC(C)=C[C@H]1c1c(O)cc(CCCCC)c(C(=O)O)c1O [CBDA, Cannabidiolic acid] | 37.6 | 
CCCCCc1cc(O)c2c(c1)OC(C)(C)c1ccc(C)cc1-2 [CBN, Cannabinol] | 11.1 | 
CCN(CC)CCCC(C)Nc1ccnc2cc(Cl)ccc12 (centres unmarked) [chloroquine, reference compound] | 9.78 | 
Cc1cccc(C)c1OCC(=O)N[C@@H](Cc1ccccc1)[C@@H](O)C[C@H](Cc1ccccc1)NC(=O)[C@H](C(C)C)N1CCCNC1=O [lopinavir, reference compound] | 13.2 | 
CCC(CC)COC(=O)[C@H](C)N[P@](=O)(OC[C@H]1O[C@@](C#N)(c2ccc3c(N)ncnn23)[C@H](O)[C@@H]1O)Oc1ccccc1 [remdesivir, reference compound] | 8.17 | 
CCCCCc1cc(O)c2c(c1)OC(C)(C)[C@@H]1CCC(C)=C[C@@H]21 [Δ^9-THC, Δ^9-tetrahydrocannabinol] | 10.2 | 
